# Experimental data as given in US10391084B2, “Methods and compositions to treat cancer” (CHILDREN'S HOSPITAL MEDICAL CENTER, priority 2013, dated 2019).
# How the values were obtained:
# [1] = system: midkine promoter coupled to a luciferase reporter gene; assay: Midkine promoter-luciferase reporter screen in stably transfected HEK293 cells, dose-response; type: cell-based; conditions: for EC50: Homo sapiens, HEK293 reporter cells, midkine expression upregulated with retinoic acid
# Method: A library of compounds was screened for activity to reduce expression of midkine in vitro. HEK293 cells were stably transfected with the pGL4 vector comprising a midkine promoter coupled to a luciferase reporter gene. […] Changes in luciferase production were measured to access the inhibitory activity of the test compounds. The primary screen included 44,000 test compounds. Test compounds that reduced cell viability by more than 50% were eliminated from the screen. From the primary screen, 351 test compounds were further examined. From the secondary screen, 78 test compounds were examined using a dose-response assay, and the EC50 for the test compounds was determined.
# In order to find a therapeutic compound that inhibits MDK expression, a MDK reporter cell line by stably transfecting HEK293 cells with a MDK promoter-fused luciferase construct was developed. This modified cell line was used to screen 44,000 compounds at the Drug Discovery Center at the University of Cincinnati. See Example 1. Detection of luciferase activity was used to identify MDK inhibitors.
# H441 cells [2] = assay: Flow cytometric analysis for apoptosis (sub-G0/G1 DNA content), H441; type: cell-based, human; conditions: 72 hours, DMSO control 1.24%
# Method: (§1) Flow cytometric analysis for apoptosis: cells were plated in 24-well plates at a density of 0.5×10^5 cells per well 1 day before the treatments. After 72 hours, cells were harvested and washed once with PBS. Cells were resuspended in PBS containing 0.2% Triton X-100 and 1 mg/ml RNase for 5 min at room temperature and then stained with propidium iodide at 50 μg/ml to determine sub-G0/G1 DNA content using a FACScan. Doublets, cell debris, and fixation artifacts were gated out, and sub-G0/G1 DNA content was determined using Cell Quest Ver. 3.3 software.
# NHLF cells = assay: Flow cytometric analysis for apoptosis (sub-G0/G1 DNA content), NHLF; type: cell-based, human; conditions: DMSO control 0.32%
# Method: as §1
# AKT = assay: Immunoblot of AKT phosphorylation in H441 cells; type: cell-based, human; conditions: H441, dose- and time-dependent
# Method: (§2) Immunoblot analysis: cells were lysed in ice-cold lysis buffer [1% Triton X-100, 20 mM Tris-HCl (pH 8.0), 137 mM NaCl, 10% glycerol (v/v), 2 mM EDTA, 1 mM sodium orthovanadate (v/v), 1 mM phenylmethylsulfonyl fluoride]. Cell lysates were clarified by centrifugation (10 min at 15,000×g at 4° C.) and protein concentration determined using the BCA protein assay (Thermo Fisher Scientific, Rockford, Ill.). Equal amounts of protein were separated on an SDS-PAGE gel. The gel was electrophoretically transferred to a Hybond PVDF transfer membrane (Amersham, Arlington Heights, Ill.) and incubated with primary and secondary antibodies according to the Supersignal® West Pico chemiluminescence protocol (Pierce, Rockford, Ill.). Antibody specific for β-actin antibody was obtained from Sigma (St. Louis, Mo.) and antibody specific for human MDK was obtained from Abcam (Cambridge, UK). Antibody specific for caspase-3, PI3 kinase p85, phosphorylated-PI3K p85 (Tyr458)/p55 (Tyr199), AKT, phosphorylated-AKT (Ser473), Bad, XIAP, survivin were obtained from Cell Signaling Technology (Beverly, Mass.). Antibody specific for VEGF was purchased from Santa Cruz Biotechnology (Santa Cruz, Calif.). Secondary horseradish peroxidase-conjugated antibodies were obtained from Jackson Immunoresearch Laboratories (West Grove, Pa.). […]
# [3] = system: xenografts derived from H441 lung adenocarcinoma cells; assay: H441 lung adenocarcinoma xenograft in nude mice; type: in vivo, BALB/c nude mice; conditions: 9 mg/kg intraperitoneal
# Method: (§3) Mouse experiments: human lung cancer xenografts were established in 6-wk-old female BALB/c nude mice (Charles River Laboratories Japan, Kanagawa, Japan) by subcutaneous (s.c.) inoculation of H441 cells (1×10^6/50 μl) mixed with Matrigel® (BD Pharmingen, San Diego, Calif.; 50 μl) into the dorsal flank (Watanabe N, et al., Clin. Cancer Res. 2008; 14:4631-9). The mice were randomly assigned into three groups (n=8 per group) 14 days after tumor inoculations. One group of mice was intraperitonially injected with 100 μl solution containing iMDK (9 mg/kg) three days per week (on days 1, 3, 5, 8, 10) and another group of mice was injected five days per week (on days 1, 2, 3, 4, 5, 8, 9, 10). DMSO was injected into the control group. Tumors were measured two to three times a week, and tumor volume was calculated as a×b^2×0.5, where a and b were large and small diameters, respectively. On day 10, all mice were sacrificed after body weight was measured and tumors were removed and prepared for histology. For analysis of serum AST and ALT, blood was drawn from the heart 48 hours after intraperitonially injected with 100 μl solution containing iMDK (9 mg/kg). DMSO was injected into the control group and four mice were used for each group.
# For immunohistochemistry, sections were sequentially deparaffinized through a series of xylene, graded ethanol, and water immersion steps. After being autoclaved in 0.2% citrate buffer for 15 minutes, sections were incubated with 3% hydrogen peroxide for 30 minutes to block endogenous peroxidase activity. A primary antibody specific for PI3 kinase p85, phosphorylated-PI3K p85 (Tyr458)/p55 (Tyr199) from Cell Signaling Technology and for MDK from Abcam were used. Specimens were incubated overnight at 4° C. with a 1:200 dilution of antibody followed by three washes with TBS. The slides were treated with streptoavidin-biotin complex (Envision System labeled polymer, horseradish peroxidase (HRP), Dako, Carpinteria, Calif.) for 60 minutes at a dilution of 1:100. […]
# [4] = system: HEK293 embryonic kidney cells; assay: Cell viability assay, trypan blue exclusion, HEK293; type: cell-based; conditions: HEK293, 0 to 500 nM, 48 hours after treatment
# Method: Cell viability assay: H441 cells, A549 cells, H520 cells, HEK293 cells and NHLF were plated in 24-well plates at a density of 1×10^5 cells and cultured at 37° C. for 24 hours. Medium was removed by aspiration and replaced with fresh culture medium containing iMDK dissolved in DMSO (10, 50, 100, 500 nmol/L). DMSO alone was used as the control. Cells were treated for 48 hours and collected by trypsinization. Viable cells were assessed by trypan blue exclusion. Recombinant MDK was purchased from R&D Systems (Minneapolis, Minn.) and reconstituted in water for block experiments. For MDK block experiments, H441 cells were cultured in Dulbecco's modified Eagle medium supplemented with 1% heat-inactivated fetal bovine overnight and recombinant MDK (25 nM) or/and iMDK (25 nM) was added for an additional 48 hours.
# caspase-3 = assay: Immunoblot of caspase-3 cleavage in H441 cells; type: cell-based, human; conditions: H441, even at the lowest concentrations (5 nM), 48 hours after treatment
# Method: as §2
# [5] = system: H441 lung adenocarcinoma cells; assay: Cell viability assay, trypan blue exclusion, H441; type: cell-based, human
# Excerpt: (§4) Cell Lines and Culture Conditions: the human pulmonary adenocarcinoma cells H322, H358, H441 and A549 and the human lung squamous cell carcinoma cells H520 were obtained from the American Type Culture Collection (Manassas, Va.) and grown in RPMI 1640 (H322, H358, H520) or high glucose Dulbecco's modified Eagle medium (H441, A549 cells) supplemented with 10% heat-inactivated fetal bovine serum. The human malignant mesothelioma cells ACC-MESO-1 (MESO-1) obtained from JCRB Cell Bank (Osaka, Japan) and the human lung squamous cell carcinoma cells SQ5 were grown in RPMI 1640 supplemented with 10% heat-inactivated fetal bovine serum. The normal human lung fibroblasts (NHLF) obtained from Clonetics (San Diego, Calif.) were grown in high glucose Dulbecco's modified Eagle medium. All cell lines were cultured in 10% CO2 at 37° C.
# The following day 100 pmol of Smart Pool MK siRNA or nontargeting siRNA (Dharmacon, Perbio Science, France) was transfected using 2 μl Lipofectamine 2000 (Invitrogen Life Technologies, Carlsbad, Calif.) according to the manufacturer's instructions. […]
# Cell viability assay: H441 cells, A549 cells, H520 cells, HEK293 cells and NHLF were plated in 24-well plates at a density of 1×10^5 cells and cultured at 37° C. for 24 hours. […] Viable cells were assessed by trypan blue exclusion. […]
# survivin = assay: Immunoblot of survivin in H441 cells; type: cell-based, human; conditions: H441, dose- and time-dependent
# Method: as §2
# BAD = assay: Immunoblot of BAD in H441 cells; type: cell-based, human; conditions: H441, dose- and time-dependent
# Method: as §2
# [6] = Systemic toxicity in mice (body weight, serum AST and ALT); type: in vivo, BALB/c nude mice
# Method: as §3
# [7] = system: H520 lung squamous cell carcinoma cells; assay: Cell viability assay, trypan blue exclusion, H520; type: cell-based, human; conditions: H520, 0 to 500 nM, 48 hours after treatment
# Excerpt: as §4
# Cell viability assay: H441 cells, A549 cells, H520 cells, HEK293 cells and NHLF were plated in 24-well plates at a density of 1×10^5 cells and cultured at 37° C. for 24 hours. Medium was removed by aspiration and replaced with fresh culture medium containing iMDK dissolved in DMSO (10, 50, 100, 500 nmol/L). DMSO alone was used as the control. Cells were treated for 48 hours and collected by trypsinization. Viable cells were assessed by trypan blue exclusion. […]
# PI3K = assay: Immunoblot of PI3K phosphorylation in H441 cells; type: cell-based, human; conditions: H441, dose- and time-dependent
# Method: as §2
# XIAP = assay: Immunoblot of XIAP in H441 cells; type: cell-based, human; conditions: H441, dose- and time-dependent
# Method: as §2
# H441 cells [8] = assay: Hoechst staining for apoptotic morphology in H441 cells; type: cell-based, human; conditions: H441, Hoechst 33342, 48 hours after treatment
# Method: Hoechst staining: the morphologic characteristics of apoptosis were evaluated using Hoechst 33342 dye (Molecular Probes, Eugene, Oreg.), which stains DNA. Cells were incubated with 1 μg/ml Hoechst dye and then visualized under a fluorescence microscope (IX81, Olympus Medical Systems Corp., Tokyo, Japan) (Ogawa N, et al., Int. J. Cancer. 1997; 73:367-70).
# [9] = 48 hours after 9 mg/kg intraperitoneal
structure (smiles),measurement,setting,value
O=c1oc2ccccc2cc1-c1cn2cc(Cc3ccc(Cl)cc3)sc2n1 [Example compound 1],EC50,[1],0.014 µM
"O=c1oc2ccccc2cc1-c1cn2cc(Cc3ccc(F)cc3)sc2n1 [Example compound 2, 3-[2-(4-fluorobenzyl)imidazo[2,1-beta][1,3]thiazol-6-yl]-2H-chromen-2-one]",sub-G0/G1 DNA content,"H441 cells [2]; H441, 10 nM",37.00%
same,sub-G0/G1 DNA content,"H441 cells [2]; H441, 25 nM",60.91%
same,sub-G0G1 DNA content,NHLF cells; 10 nM,0.52%
same,sub-G0G1 DNA content,NHLF cells; 25 nM,1.51%
same,Phosphorylation of AKT,AKT,suppressed
same,volume of the tumors versus control group,[3]; 3 or 5 times a week,significantly lower
same,lung tumor growth,"[3]; 3 or 5 times a week, from 14 days after inoculation",arrested
same,"Tunel staining, DNA fragmentation in tumors",[3]; xenograft tumors,detected DNA fragmentation
same,cell growth,[4],dose-dependently inhibited cell growth
same,cleaved forms of caspase-3,caspase-3,induced
same,cell growth,"[5]; H441, 0 to 500 nM, 48 hours after treatment",dose-dependently inhibited cell growth
same,suppression of cell growth with pretreatment of recombinant MDK,"[5]; H441, recombinant MDK 25 nM, iMDK 25 nM, 48 hours",partially blocked
same,survivin expression,survivin,reduced
same,BAD expression,BAD,induced
same,activity to reduce expression of midkine (in words),"[1]; reporter screen, dose response",exceptional activity
same,body weight,"[6]; 9 mg/kg intraperitoneal, day 10",did not influence
same,serum level of ALT,[6]; [9],did not influence
same,serum level of AST,[6]; [9],did not influence
same,cell growth,[7],dose-dependently inhibited cell growth
same,Phosphorylation of PI3K,PI3K,suppressed
same,XIAP expression,XIAP,reduced
same,nuclear fragmentation,H441 cells [8],induced nuclear fragmentation in a dose-dependent manner
O=c1oc2ccccc2cc1-c1cn2cc(Cc3ccc(Br)cc3)sc2n1 [Example compound 3],EC50,[1],0.0122 µM
O=c1oc2ccccc2cc1-c1cn2cc(Cc3cc(Cl)ccc3Cl)sc2n1 [Example compound 4],EC50,[1],0.0159 µM
